According to paper PMC4764201, “High Throughput Screen for Escherichia coli Twin Arginine Translocation (Tat) Inhibitors” (PLoS ONE, 2016):

What was measured:
E. coli MC4100(DE3) = assay: Cell growth (optical density A500) under Tat++ conditions; format: cell-based, Escherichia coli
Description: Fig 4 Effect of Oxidative Phosphorylation Inhibitors on In Vivo Tat Transport and Sensitivity of Fluorescence Detection on Plates. (A) Effect of oxidative phosphorylation inhibitors on cell growth and mCherry fluorescence under Tat^++ conditions. Cells producing spTorA-mCherry-SsrA under Tat^++ conditions were grown at 25°C for 8 h in the presence of the indicated respiratory inhibitors. After overnight incubation at 4°C, optical densities (upper panel; A500) and total mCherry cellular fluorescence intensities (lower panel; EX = 587 nm, EM = 610 nm) were measured (n = 3). Nigericin (N; 50 μM) is a H^+/K^+ exchanger, which collapses the ΔpH gradient. Valinomycin (V; 50 μM) is a K^+ ionophore, which collapses the Δψ. NaSCN (SCN; 50 mM) collapses the Δψ. NaN3 (N3; 0.1%) inhibits the cytochrome bo3 terminal oxidase. (B) Effect of NaSCN concentration on cell density and total mCherry cellular fluorescence. Measurements were made after incubating cells overnight at 4°C (n = 3). (C) Calibration and sensitivity of mCherry fluorescence detection in 384-well plates. Overnight cultures of E. coli MC4100(DE3) cells were diluted to A500 = 0.25, 0.2, 0.15, 0.10 and 0.05, and aliquoted into 384-well plates. The spTorA-mCherry-SsrA and TatABC proteins were induced together or neither were induced, as indicated. The cells were incubated at 25°C for 8 hours, and stored overnight at 4°C. Optical densities (upper panel) and mCherry fluorescence intensities (lower panel) were determined with a BMG Polarstar Omega plate reader (at 500 nm for absorbance; EX = 584 nm, EM = 620 nm for fluorescence). For comparison, the absorbance and fluorescence intensities from purified spTorA-mCherry-H6 (30, 25, 20, 15, 10 and 5 nM) are also shown (n = 3 plates, 16 wells/plate). (D) Simulated hits on 384-well plates. Using the approach described in (C), cells (A500 = 0.15) were grown on plates under the indicated conditions, and then fluorescence intensities were measured. spTorA-mCherry-SsrA was used for conditions II-IV. spTorA-mCherry-H6 was used for a minus SsrA control (I; 100%). The SsrA tag decreased the mCherry fluorescence intensity (II; 63±14%), consistent with a decrease in cytoplasmic mCherry concentration due to SsrA-dependent degradation.
(§1) The plates containing cells and dispersed test compounds were grown with shaking (200 rpm) at 25°C for 8 h. Plates were individually mounted, not stacked, on a hollow plastic platform, allowing adequate air circulation. Following the 8 h incubation, plates were transferred to 4°C for 16 h. Each plate was covered with an empty plate to prevent condensation on the lid. […] Following the incubation, plates were read using a BMG Polarstar Omega plate reader (BMG Labtech, Ortenberg, Germany) to determine optical densities (A500) and mCherry fluorescence intensities (EX = 584 nm, EM = 620 nm).
Supplementary file pone.0149659.s005.tiff: S5 Fig Effect of P. aeruginosa Tat Inhibitors on E. coli Cell Growth and Tat Transport. The concentration-dependent effects of Bay 11–7082 (A) and N-phenylmaleimide (B) on bacterial growth (black) and in vivo Tat transport of spTorA-mCherry-SsrA (red) was determined under Tat^++ conditions (top). An overnight culture of MC4100(DE3) (pTorA-mCherry-SsrA, pTatABC-Duet1) was diluted 1:50 in 10 mL fresh LB broth with appropriate antibiotics and dispensed (2 mL) into 5 tubes, and growth was continued at 37°C with shaking at 200 rpm until A500 ≈ 0.5. The indicated concentrations of the two compounds were added, and the expression of spTorA-mCherry-SsrA and TatABC were induced. Cultures were grown for another 8 h at 25°C. Cell growth was assayed by A500, and cells (1 mL, A500 = 1.0) were fractionated into cytoplasmic (C) and periplasmic (P) fractions as described. Transport of spTorA-mCherry-SsrA was assayed by in-gel fluorescence of mCherry (upper gels) and Western blot analyses (middle gels). […]

[1] = test system: Escherichia coli Tat pathway; assay: Live cell assay: total mCherry fluorescence of cells producing spTorA-mCherry-SsrA (primary HTS assay); format: cell-based; details: for effect on mCherry fluorescence in culture: nigericin and/or valinomycin, 50 μM each
Source text: Having obtained the calibration and validation data described in the previous sections, we next established the protocol for the HTS. Details are provided in the Materials and Methods section. Here, we briefly summarize the assay. A single colony of E. coli strain MC4100(DE3) containing plasmids encoding TatABC and spTorA-mCherry-SsrA was inoculated into LB and grown overnight. The next morning, cells were transferred to fresh media, the production of TatABC and spTorA-mCherry-SsrA was induced, and cultures were aliquoted onto plates with test compounds. NaSCN was included in control wells to simulate a hit. Cells were grown for 8 h, followed by incubation at 4°C overnight, and then read the next day. Setting the total cellular fluorescence obtained with spTorA-mCherry-H6 under Tat^++ conditions to 100%, spTorA-mCherry-SsrA yielded a total cellular fluorescence signal of 63±14%, consistent with SsrA-induced degradation of the mCherry protein. The total cellular fluorescence was further reduced to 36±14% in the presence of 30 mM NaSCN (simulated hit), and to 41±6% in the absence of TatABC, verifying the Δψ- and Tat-dependence of the fluorescence signal (Fig 4D).
A single colony of E. coli strain MC4100(DE3) (pTatABC-DUET1, pTorA-mCherry-SsrA) was inoculated into a 100 mL LB culture supplemented with Ap and Cm and grown at 37°C with shaking (250 rpm) overnight. Cells were harvested by centrifugation at 4,000g for 10 min at room temperature (RT), suspended in 10 mL fresh LB broth supplemented with Ap and Cm, and the optical density (A500) was determined. Simultaneously, 700 mL LB supplemented with 100 mM arabinose, 2 mM IPTG, 100 μg/mL Ap and 68 μg/mL Cm was filter-sterilized (0.22 μm), and then divided into 200 mL (A) and 500 mL (B) portions. Sterile NaSCN (30 mM final; 1.5 mL of 4 M NaSCN) was added to portion A, and an equal ratio of sterile water was added to portion B (3.75 mL). Media and cells were transferred to the HTS facility on ice.
A CyBi-Well vario pipetting workstation (CyBio, Jena, Germany) was used to dispense library compounds and cultures. Library compounds (1 μL) solubilized in DMSO were added to 384-well black, clear-bottomed plates (Greiner Bio-one, Germany) in columns 3 to 22 (320 wells/plate). For controls, DMSO (1 μL) was added to each well in columns 1, 2, […], to achieve DMSO uniformity across the plate. Both portions of LB media were inoculated with E. coli MC4100(DE3) (pTatABC-DUET1, pTorA-mCherry-SsrA) from the concentrated stock to a final A500 = 0.15. The media with 30 mM NaSCN (positive control, or simulated hit) was dispensed into each well of columns 1 and 24 (49 μL each). An equivalent volume of media without NaSCN was dispensed into each well of columns 2 to 23. Columns 2 and 23 lacked NaSCN and test compounds and served as negative controls. The first 12,800 compounds were screened at 5 μM (plates 1–40), and the remaining 38,800 compounds were screened at 20 μM (plates 41–162).
as §1
Supplementary file pone.0149659.s003.tiff: S3 Fig IC50's for Hit Compound 181^JS. (A) The total cellular mCherry fluorescence (live cell assay; n = 1), (B) the in vitro NADH-dependent Tat transport efficiency of pre-SufI (n = 1), and (C) the maximum transmembrane electrical potential gradient (n = 1) were measured for a range of concentrations of compound 181^JS (S2E Fig). (D) SDS-PAGE gel showing in-gel fluorescence data used in (B). […]

[2] = target: E. coli Tat machinery (IMVs containing overproduced TatABC) (Escherichia coli, UniProt P69423+P69425+P69428); details: cited from earlier work; for effect on Tat transport in vitro: 2.5 μM of each of the two ionophores, both added
[3] = nigericin and/or valinomycin, 50 μM each

Sequence of E. coli Tat machinery (IMVs containing overproduced TatABC) (P69423 2-258): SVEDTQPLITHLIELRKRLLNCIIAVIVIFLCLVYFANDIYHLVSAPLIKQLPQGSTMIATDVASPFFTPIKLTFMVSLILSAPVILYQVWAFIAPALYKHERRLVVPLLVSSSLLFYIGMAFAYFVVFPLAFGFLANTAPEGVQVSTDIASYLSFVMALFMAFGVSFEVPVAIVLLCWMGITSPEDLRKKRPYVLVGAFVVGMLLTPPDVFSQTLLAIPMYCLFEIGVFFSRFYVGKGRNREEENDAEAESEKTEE
Sequence of E. coli Tat machinery (IMVs containing overproduced TatABC) (P69425 whole entry): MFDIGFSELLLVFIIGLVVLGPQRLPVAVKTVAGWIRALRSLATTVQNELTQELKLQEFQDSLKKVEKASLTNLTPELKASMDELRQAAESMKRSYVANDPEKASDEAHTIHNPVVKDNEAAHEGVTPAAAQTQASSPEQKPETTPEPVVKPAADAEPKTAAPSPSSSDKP
Sequence of E. coli Tat machinery (IMVs containing overproduced TatABC) (P69428 whole entry): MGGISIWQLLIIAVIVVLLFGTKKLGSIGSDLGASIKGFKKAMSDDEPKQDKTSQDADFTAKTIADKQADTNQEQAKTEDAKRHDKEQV

Which “effect on cell growth” value (E. coli MC4100(DE3); [3]) does the source give for `CC(C)[C@@H]1NC(=O)[C@H](C)OC(=O)[C@@H](C(C)C)NC(=O)[C@@H](C(C)C)OC(=O)[C@H](C(C)C)NC(=O)[C@H](C)OC(=O)[C@@H](C(C)C)NC(=O)[C@@H](C(C)C)OC(=O)[C@H](C(C)C)NC(=O)[C@H](C)OC(=O)[C@@H](C(C)C)NC(=O)[C@@H](C(C)C)OC1=O` [valinomycin] here?
Its value is “did not affect”.

What about the “effect on mCherry fluorescence in culture” value [1] of the same molecule?
Its value is “did not affect”.

And the “effect on Tat transport in vitro” value [2]?
Its value is “completely block”.

Which “effect on growth of E. coli cultures” value (E. coli MC4100(DE3); NaSCN 50 mM) does the source give for `N#C[S-].[Na+]` [NaSCN] here?
Its value is “without affecting growth”.

What about the “total cellular fluorescence (mCherry)” value ([1]; 30 mM NaSCN, spTorA-mCherry-H6 under Tat++ = 100%, spTorA-mCherry-SsrA without NaSCN 63±14%) of the same molecule?
The value was 36±14%.

What about the “reduction of mCherry fluorescence” value ([1]; NaSCN 50 mM, Tat++ cells, 25°C 8 h) of the same molecule?
Its value is ~ 40%.

And the “concentration sufficient to maximally reduce the mCherry fluorescence signal without affecting cell growth” value ([1]; dose response, Tat++ cells)?
Its value is 30 mM.

And the “effect on in vitro Tat transport” value ([2]; NaSCN alone)?
Its value is “completely inhibits”.

For `[N-]=[N+]=[N-].[Na+]` [Sodium azide], which “effect on cell growth” value (E. coli MC4100(DE3); NaN3 0.1%) is on record?
The value was “inhibited cell growth”.

What about the “effect on mCherry fluorescence signal” value ([1]; NaN3 0.1%) of the same molecule?
The value was “decreased the mCherry fluorescence signal”.

For `CO[C@@H]1C[C@@H](C[C@H]2CC[C@H](C)[C@H]([C@@H](C)C(=O)O)O2)O[C@]2(O[C@](C)([C@H]3CC[C@@](C)([C@@H]4O[C@@H]([C@H]5O[C@@](O)(CO)[C@H](C)C[C@@H]5C)C[C@@H]4C)O3)C[C@H]2C)[C@@H]1C` [nigericin], which “effect on cell growth” value (E. coli MC4100(DE3); [3]) is on record?
Its value is “did not affect”.

What about the “effect on mCherry fluorescence in culture” value [1] of the same molecule?
The value was “did not affect”.

What about the “effect on Tat transport in vitro” value [2] of the same molecule?
Its value is “completely block”.
